Data as given in US7407940B2, “Antimicrobial hexapeptides” (Helix BioMedix Inc., priority 2005, dated 2008).
Where a SMILES comes first, the peptide text is derived from it. Where no end group is shown, it is not given here. The star is where a group is joined. Undecanoyl = CCCCCCCCCCC(=O)*; Octanoyl = CCCCCCCC(=O)*

How the values were obtained:
[1] = system: azole resistant strains of C. albicans; format: cell-based; conditions: azole resistant strains of C. albicans
Protocol: (§1) The fractional inhibitory concentration (FIC) index was used to determine the synergy between antimicrobial agents. Peptide MICs against test microorganisms were determined three times on separate occasions. […]
All strains are azole resistant clinical isolates from Prof. Ted White (Seattle Biotechnology Research Institute, Seattle)

P. aeruginosa = format: cell-based; conditions: drug resistant P. aeruginosa
Protocol: as §1

Lipoteichoic acid (LTA) = assay: LTA binding assay; conditions: FIG. 7
Source text: Lipoteichoic acid (LTA) is a common cell wall component of gram-positive bacteria including organisms such as S. aureus and P. acnes. The release of LTA during infection can lead to the release of mediators of the host inflammatory response which in turn can result in sepsis (septic shock). For example, when injected into animals, LTA can elicit many of the characteristic features of septic shock, including cytokine production, leukocytopenia, circulatory failure, multiple-organ dysfunction syndrome, and mortality.

MRSA = assay: Kill curve in 10% sheep serum-phosphate buffer against MRSA; format: cell-based, S. aureus; conditions: 10% serum / biological environments
S. aureus [2] = assay: Kill curve in vaginal simulant, S. aureus; format: cell-based; conditions: FIG. 2
Source text: (§2) An additional embodiment of the invention is directed towards methods of treating sexually transmitted diseases (STDs). Many of the fungal species responsible for STDs are likely to be inhibited or killed by application of one or more of the inventive hexapeptides of Table 1. Examples of such species include C. albicans, C. glabrata, and C. tropicalis. The inventive hexapeptide/s may additionally be used against other agents responsible for STDs including viruses and bacteria. The hexapeptide/s can be administered to an STD patient by any acceptable method, such as topical, oral, or systemic delivery. The hexapeptide/s can be administered in a single dose, in multiple doses, or as a continuous delivery. The hexapeptide/s can be administered in any acceptable form, such as a cream, gel, or liquid. An indication of the likelihood of activity of the hexapeptides of the present invention in the vaginal environment is shown in FIG. 2, where the activity of SEQ ID NO:55 is shown in killing curves against C. Albicans and S. aureus.

C. albicans = assay: Kill curve in vaginal simulant, C. albicans; format: cell-based; conditions: FIG. 2
Source text: as §2

[3] = parameters: species or system Sprague-Dawley rats; conditions: rat, in vivo
Source text: Each wound observed at each dressing change and the wound surface and tissue reaction assessed. There were 5 parameters of wound status that were checked: • i. Wound Film Security—Was the adhesive film used to cover the wound still completely adherent to the skin around the wound? • ii. Wound Surface—What was the exact visual appearance of the wound surface? • iii. Amount of Exudate—How much exudate was trapped under the film? In many cases, accumulated exudate causes the film to lose adherence and the exudates will escape. • iv. Severity of Tissue Reaction—A subjective rating of extent of tissue reaction on a scale of 1 (minimal), 2 (moderate), 3 (extensive). • v. % of Tissue Involved—In some situations, the wound surface contained denatures, friable tissue that could be wiped off with pressure applied to gauze. This test was used to better differentiate denatured tissue from viscous exudates.

[4] = Systemic toxicity, tail vein injection; format: in vivo; conditions: mouse, IV, 20 mg/kg, solvent ringers
Pseudomonas aeruginosa = format: cell-based; parameters: MIC, lipid length SAR: unit not given here; conditions: P.aeruginosa
Protocol: (§3) MICs (minimal inhibitory concentrations) were determined for the hexapeptides of interest using a slightly modified version of the NCCLS (National Committee for Clinical Laboratory Standards) broth microdilution method as described previously (Steinberg et al., AAC 41: 1738, 1997). Briefly, antimicrobial agents were prepared as 10× concentrates in the most appropriate solvent. For the hexapeptide, 0.01% acetic acid containing 0.2% bovine serum albumin as a carrier protein was used. Inocula were prepared by resuspending colonies from a BAP (please spell out this term) in medium and adjusting the suspension to match that of a 0.5 McFarland standard. The suspension was diluted into fresh medium (as recommended by NCCLS for the organism) to give 2×10^5 to 7×10^5 CFU/ml for bacteria or 2×10^3 to 7×10^3 CFU/ml for Candida. After dispensing 100 μl aliquots of the microbial suspension into each well of a 96-well polypropylene microtiter plate, 11 μl of test compound was added. The MIC was defined as the lowest concentration of drug which prevented visible turbidity after 16 to 20 hours (bacteria) or 46 to 50 hours (Candida) at 35° C.

[5] = system: Salmonella typhimurium 14028S; assay: MIC, broth microdilution, S. typhimurium; format: cell-based; parameters: unit not given here; conditions: S.typhimurium
Protocol: as §3

S. aureus [6] = assay: Kill curve in 80% serum, S. aureus; format: cell-based
Source text: It should be noted that in addition to MIC data, the lipo-hexapeptides can also be distinguished by their ability to kill bacteria in the presence of biological constituents such as serum. […] This activity, an indicator of therapeutic potential, is not obvious from the MIC data alone.

Molecule: CCCCCCCC(=O)N[C@@H](CCCCN)C(=O)N[C@@H](Cc1ccccc1)C(=O)N[C@@H](CCCCN)C(=O)N[C@@H](Cc1c[nH]c2ccccc12)C(=O)N1CCC[C@H]1C(=O)N[C@@H](Cc1c[nH]c2ccccc12)C(N)=O [SEQ ID NO:55] (Octanoyl-KFKWPW-NH2)
- synergy with clotrimazole (in words) [1]: exhibits synergy
- synergy with polymyxin B (in words) (P. aeruginosa): displayed synergistic activity
- LTA binding (in words) (Lipoteichoic acid (LTA)): fail to bind LTA
- ability to kill S. aureus in serum (in words) (MRSA): increased ability
- killing in vaginal simulant (in words) (S. aureus [2]): killing
- killing in vaginal simulant (in words) (C. albicans): killing
- tissue reaction (in words) [3]: mild

Molecule: KYKKALKKLAKLL-NH2 [SEQ ID NO:92]
- Result (systemic toxicity) [4]: 3/3 dead

Molecule: Und-KFKWPW-NH2 (Undecanoyl-KFKWPW-NH2; SMILES CCCCCCCCCCC(=O)N[C@@H](CCCCN)C(=O)N[C@@H](Cc1ccccc1)C(=O)N[C@@H](CCCCN)C(=O)N[C@@H](Cc1c[nH]c2ccccc12)C(=O)N1CCC[C@H]1C(=O)N[C@@H](Cc1c[nH]c2ccccc12)C(N)=O) [SEQ ID NO: 79]
- MIC, lipid length SAR (Pseudomonas aeruginosa): 8-16
- MIC, lipid length SAR [5]: 8-16
- killing of S. aureus in 80% serum (in words) (S. aureus [6]): perform very well
